Assay results as given in publication PMC8830292, “Anti-Toxoplasma gondii effect of lupane-type triterpenes from the bark of black alder (Alnus glutinosa) and identification of a potential target by reverse docking” (Parasite, 2022).

Assays:
[1] = tested on: Toxoplasma gondii tachyzoites (strain RH, type I); assay: Half maximal inhibitory concentration (IC50) on T. gondii (enzyme immunoassay); type: cell-based; conditions: for Selectivity index (SI): SI = CC50/IC50 (Vero cells / T. gondii); for IC50: Toxoplasma gondii, T. gondii RH in Vero cells, 72 h
Procedure: (§1) All the experiments were performed in triplicate. Compound screening was performed at 10 μM in 96-well plates. Thus, 20,000 Vero cells contained in 200 μL of culture medium were filled in each well and left to adhere for 4 h at 37 °C and 5% of CO2. Then, 50,000 parasites contained in 50 μL of culture medium were filled, followed by 3 h of incubation in the same conditions. Wells were then emptied and 100 μL of solutions containing each drug at a final concentration of 10 μM were added. Incubation continued for 72 h.
(§2) The IC50 assays were processed in the same conditions as previously described. Dilutions were performed in a culture medium. The IC50 was determined using an adapted protocol from Doliwa et al.. Parasites and cells were first fixed with 100 μL of cold methanol for 5 min at −20 °C. Cells were then rehydrated with 100 μL of PBS at room temperature. Wells were then emptied and filled with 60 μL of a solution of anti-T. gondii rabbit antibody (Ref. 9070-0556, Biorad) diluted at 1/1000. After 1 hour of incubation at 37 °C, wells were washed three times with PBS, and 60 μL of anti-rabbit IgG horseradish conjugated goat antibody (Ref. 170-6515, Bio-Rad) at 1/1000 were added, followed by 1 h of incubation at 37 °C. The wells were washed three more times, and 200 μL of a solution of o-phenylenediamine dihydrochloride (Sigma, France) was added. After 15 min at room temperature, the enzymatic reaction was stopped by the addition of 50 μL of hydrochloric acid (HCl) 3 M. To finish, 200 μL of each well were transferred to a new well and a spectrophotometer reading was performed at 492 nm, corrected at 630 nm. Each experiment was performed with three controls: control with host cells alone, control with host cells and parasites without the drug for parasite multiplication, and control with host cells with parasites and pyrimethamine at 1 μM.

[2] = tested on: Toxoplasma gondii tachyzoites (strain RH, type I); assay: Screening at 10 μM: T. gondii parasite growth inhibition in Vero cells (enzyme immunoassay); type: cell-based; conditions: for inhibition at 10 µM / parasite growth inhibition: 72 h, triplicate, 10 μM
Procedure: as §1, §2

[3] = tested on: L. donovani; parameters: method as in earlier work; conditions: 50 μM; cited from earlier work
[4] = Cytotoxicity evaluation, Uptiblue viable cell-counting assay; conditions: African green monkey
Procedure: (§3) Vero cells (host cells of T. gondii tachyzoite) were purchased at ATCC (reference CCL-81), grown in Iscove Modified Dulbecco Media (IMDM) GlutaMAX medium (Gibco) supplemented with 5% decomplemented fetal calf serum with 1% penicillin/streptomycin. The culture was incubated at 37 °C and 5% CO2. Toxoplasma gondii tachyzoites (strain RH, type I) were grown in the same conditions as Vero cells except that the concentration of fetal calf serum was 2%.
(§4) The in vitro cytotoxicity was evaluated on Vero cell cultures using Uptiblue® viable cell-counting assay (Interchim, Montluçon, France). CC50 assays were performed in 96-well plates containing 20,000 Vero cells and 200 μL of culture medium identical to the one used for Vero cell maintenance. After 4 h of incubation, wells were emptied. The IC50 was performed with 100 μL of solutions containing the tested compounds with a final concentration range of 0–80 μM. After 72 h of incubation, wells were washed with 100 μL of phosphate-buffered saline (PBS) (Sigma-Aldrich, Saint-Quentin-Fallavier, France). Then, 100 μL of IMDM culture medium supplemented with 2% (v/v) of calf fetal serum and 10% (v/v) of Uptiblue® were added to each well. Plates were placed at 37 °C and 5% of CO2 for 3 h. Spectrophotometric measures were performed at 570 nm and corrected at 600 nm on an AMR-100 spectrophotometer (AllSheng, Hangzhou, China).

[5] = tested on: Vero cells; conditions: cited from earlier work
[6] = tested on: Vero cells; assay: Cytotoxicity evaluation, Uptiblue viable cell-counting assay
Procedure: as §3, §4

[7] = Solubility in DMSO; type: physicochemical
Procedure: Stock solutions at 1 mg/mL were prepared in cell culture grade dimethyl sulfoxide (DMSO, PanReac AppliChem, Darmstadt, Germany). Subsequent dilutions were made in a culture medium identical to the one used for tachyzoite maintenance.

[8] = tested on: Vero cells; parameters: method as in PMID 20441162; conditions: cited from earlier work
[9] = tested on: T. gondii; parameters: method as in PMID 20441162; conditions: cited from earlier work
[10] = tested on: P. falciparum; parameters: method as in PMID 11239932; conditions: P. falciparum growth; cited from earlier work
[11] = tested on: T. gondii; parameters: method as in PMID 23776166; conditions: in vitro growth of T. gondii; cited from earlier work
[12] = tested on: Plasmodium falciparum K1 strain; parameters: method as in PMID 21438586; conditions: cited from earlier work

Compound	Selectivity index (SI) [1]	IC50 [1]	inhibition at 10 µM ([2]; Toxoplasma gondii, Vero)	CC50 at 72 h [4]	CC50 at 72 h ([4]; Vero cells (ATCC CCL-81))	also measured
C=C(C)[C@@H]1CC[C@]2(C(=O)O)CC[C@]3(C)[C@H](CC[C@@H]4[C@@]5(C)CC[C@H](O)C(C)(C)[C@@H]5CC[C@]43C)[C@@H]12 [Betulinic acid (3), betulinic acid]	>9.6	8.3 ± 2.7 µM	49%	> 80 µM	–	inhibition of L. donovani [3]: 39.8%
C=C(C)[C@@H]1CC[C@]2(CO)CC[C@]3(C)[C@H](CC[C@@H]4[C@@]5(C)CC[C@H](O)C(C)(C)[C@@H]5CC[C@]43C)[C@@H]12 [Betulin (1), betulin]	>6.0	13.3 ± 7.3 µM	44%	> 80 µM	–	inhibition of L. donovani [3]: 35.0%; CC50 [5]: 164 µM
C=C(C)C1CCC2(C(=O)O)CCC3(C)C(CCC4C5(C)CCC(=O)C(C)(C)C5CCC43C)C12 (stereo not drawn) [Betulonic acid (7), Betulonic acid]	>18.6	4.3 ± 1.4 µM	–	–	> 80 µM	inhibition of L. donovani [3]: 97.6%; cytotoxicity ([6]; 80 μM on Vero cells): without cytotoxicity
CCc1nc(N)nc(N)c1-c1ccc(Cl)cc1 [Pyrimethamine (10), pyrimethamine, reference compound]	38.0	0.7 ± 0.2 µM	–	–	27.7 µM	inhibition at 1 µM ([2]; Toxoplasma gondii, Vero, 1 μM): 78%; cytotoxicity ([6]; 10 μM): cytotoxic
C=C(C)C1CCC2(C(=O)OC)CCC3(C)C(CCC4C5(C)CCC(=O)C(C)(C)C5CCC43C)C12 (stereo not drawn) [Betulonic acid methyl ester (8), betulonic acid methyl ester]	>25.8	3.1 ± 0.4 µM	–	> 80 µM	–	–
C=C(C)[C@@H]1CC[C@]2(C)CC[C@]3(C)[C@H](CC[C@@H]4[C@@]5(C)CCC(=O)C(C)(C)[C@@H]5CC[C@]43C)[C@@H]12 [Lupenone, lupenone]	–	–	–	–	–	solubility in DMSO [7]: not soluble in DMSO
CC1(C)CC[C@]2(C(=O)O)CC[C@]3(C)C(=CC[C@@H]4[C@@]5(C)C[C@@H](O)[C@H](O)C(C)(C)[C@@H]5CC[C@]43C)[C@@H]2C1 [maslinic acid]	–	–	–	–	–	LD50 [8]: 236.6 µM; LD50 [9]: 53.8 µM
Oc1cc(Cl)ccc1Oc1ccc(Cl)cc1Cl [triclosan]	–	–	–	–	–	IC50 [10]: 1 µM; IC50 [11]: 3 µM
C=C(C)[C@@H]1CC[C@]2(C)CC[C@]3(C)[C@H](CC[C@@H]4[C@@]5(C)CC[C@H](O)C(C)(C)[C@@H]5CC[C@]43C)[C@@H]12 [Lupeol (5), lupeol]	>5.8	13.8 ± 4 µM	60%	–	> 80 µM	–
β-sitostenone [β-sitostenone (9)]	–	–	–	–	–	parasite growth inhibition [2]: did not show any relevant activity; parasite growth inhibition ([2]; listed as β-sitostenone): no specific activity
C=C(C)[C@@H]1CC[C@]2(CO)CC[C@]3(C)[C@H](CC[C@@H]4[C@@]5(C)CCC(=O)C(C)(C)[C@@H]5CC[C@]43C)[C@@H]12 [Betulone (4), betulone]	>29.6	2.7 ± 1.2 µM	99%	> 80 µM	–	IC50 [12]: 3 µM; Selectivity index (SI) ([1]; listed as betulone): greater than 29
C=C(C)[C@@H]1CC[C@]2(C=O)CC[C@]3(C)[C@H](CC[C@@H]4[C@@]5(C)CC[C@H](O)C(C)(C)[C@@H]5CC[C@]43C)[C@@H]12 [Betulinaldehyde (2), betulinaldehyde]	>15.7	5.1 ± 0.6 µM	93%	–	> 80 µM	–
